Each structure is given as a SMILES string. Where two headings read alike, the source gives them in different places. A value given as a limit tells only on which side of the number the result lay.

The subject of data set [1] is Myzus persicae (Green Peach Aphid). The data set is described as follows: Myzus persicae feeding/contact activity, sunflower leaf discs. The class given is in vivo. To be noted: foliar, 144 h. The procedure: Example B5: Myzus persicae (Green Peach Aphid): Feeding/Contact Activity
Sunflower leaf discs were placed onto agar in a 24-well microtiter plate and sprayed with aqueous test solutions prepared from 10′000 ppm DMSO stock solutions. After drying, the leaf discs were infested with an aphid population of mixed ages. The samples were assessed for mortality 6 days after infestation.

For data set [2] the test system is unchanged. Briefly: Myzus persicae systemic activity, pea seedlings. It is filed as in vivo. Particulars: 144 h, test rate of 24 ppm, 6 days after placing seedlings into test solutions.
The test system of data set [3] is Diabrotica Balteata (Corn Root Worm). Briefly: Diabrotica balteata L2 larvae on maize sprouts. It is filed as in vivo. To be noted: 96 h, read-out: effect in at least one of the two categories (mortality or growth inhibition); for percent effect (mortality or growth inhibition) at 200 ppm: application rate of 200 ppm, L2 larvae, 4 days after infestation. The method, then: Example B2: Diabrotica Balteata (Corn Root Worm)
Maize sprouts placed onto an agar layer in 24-well microtiter plates were treated with aqueous test solutions prepared from 10′000 ppm DMSO stock solutions by spraying. After drying, the plates were infested with L2 larvae (6 to 10 per well). The samples were assessed for mortality and growth inhibition in comparison to untreated samples 4 days after infestation.

Data set [4] has as its system Plutella xylostella (Diamond Back Moth). Briefly: Plutella xylostella L2 larvae on artificial diet. It is filed as in vivo. Particulars: 120 h, read-out: effect in at least one of the two categories (mortality or growth inhibition); for percent effect (mortality or growth inhibition) at 200 ppm: application rate of 200 ppm, L2 larvae, 5 days after infestation. The procedure: Example B7: Plutella xylostella (Diamond Back Moth)
24-well microtiter plates with artificial diet were treated with aqueous test solutions prepared from 10′000 ppm DMSO stock solutions by pipetting. After drying, the plates were infested with L2 larvae (10 to 15 per well). The samples were assessed for mortality and growth inhibition in comparison to untreated samples 5 days after infestation.

Data set [5] has as its system Spodoptera littoralis (Egyqptian Cotton Leaf Worm). Briefly: Spodoptera littoralis L1 larvae on sprayed cotton leaf discs. The class given is in vivo. Particulars: foliar, 72 h, read-out: control (mortality, anti-feeding effect, growth inhibition). The method, then: Example B8: Spodoptera littoralis (Egyqptian Cotton Leaf Worm)
Cotton leaf discs were placed onto agar in 24-well microtiter plates and sprayed with aqueous test solutions prepared from 10′000 ppm DMSO stock solutions. After drying the leaf discs were infested with five L1 larvae. The samples were assessed for mortality, anti-feeding effect, and growth inhibition in comparison to untreated samples 3 days after infestation. Control of Spodoptera littoralis by a test sample is given when at least one of the categories mortality, anti-feedant effect, and growth inhibition is higher than the untreated sample.

For data set [6], the system named is Thrips tabaci (Onion Thrips). The data set is described as follows: Thrips tabaci feeding/contact activity, sunflower leaf discs. The class given is in vivo. Particulars: foliar, 144 h, application rate of 200 ppm, population of mixed ages, 6 days after infestation. The method, then: Example B11: Thrips tabaci (Onion Thrips) Feeding/Contact Activity
Sunflower leaf discs were placed on agar in 24-well microtiter plates and sprayed with aqueous test solutions prepared from 10′000 ppm DMSO stock solutions. After drying the leaf discs were infested with a thrips population of mixed ages. The samples were assessed for mortality 6 days after infestation.

The mark [7] stands for this setting: application rate of 200 ppm, feeding/contact, population of mixed ages, 6 days after infestation, read-out: mortality.
Where [8] appears, read: application rate of 200 ppm, L1 larvae, 3 days after infestation.

With `CCSc1cc(NC(=O)C2CC2)cnc1-c1nnc(-c2cc(C(F)(F)F)ccn2)n1C` [A1, N-[5-ethylsulfanyl-6-[4-methyl-5-[4-(trifluoromethyl)-2-pyridyl]-1,2,4-triazol-3-yl]-3-pyridyl]cyclopropanecarboxamide], the mortality at 200 ppm in data set [1] (setting [7]) was at least 80%.

As to `CCS(=O)(=O)c1cc(C=O)cnc1-c1nnc(-c2cc(C(F)(F)F)ccn2)n1C` [A3, 5-ethylsulfonyl-6-[4-methyl-5-[4-(trifluoromethyl)-2-pyridyl]-1,2,4-triazol-3-yl]pyridine-3-carbaldehyde], in data set [1] (setting [7]), the mortality at 200 ppm was at least 80%. This compound also had a mortality at 24 ppm in data set [2] of at least 80%.

`CCS(=O)(=O)c1cc(C(C)=O)cnc1-c1nnc(-c2cc(C(F)(F)F)ccn2)n1C` [A4, 1-[5-ethylsulfonyl-6-[4-methyl-5-[4-(trifluoromethyl)-2-pyridyl]-1,2,4-triazol-3-yl]-3-pyridyl]ethanone] had a mortality at 24 ppm in data set [2] of at least 80%.

For `CCS(=O)(=O)c1ccc(NC2CC2)nc1-c1nnc(-c2cc(C(F)(F)F)ccn2)n1C` [A5, N-cyclopropyl-5-ethylsulfonyl-6-[4-methyl-5-[4-(trifluoromethyl)-2-pyridyl]-1,2,4-triazol-3-yl]pyridin-2-amine], in data set [1] (setting [7]), the mortality at 200 ppm was at least 80%. Further, the mortality at 24 ppm in data set [2] is at least 80%.

Regarding `CCS(=O)(=O)c1ccc(N(C)C(=O)C2CC2)nc1-c1nnc(-c2cc(C(F)(F)F)ccn2)n1C` [A8, N-[5-ethylsulfonyl-6-[4-methyl-5-[4-(trifluoromethyl)-2-pyridyl]-1,2,4-triazol-3-yl]-2-pyridyl]-N-methyl-cyclopropanecarboxamide], the percent effect (mortality or growth inhibition) at 200 ppm in data set [3] and in data set [4] was at least 80% each time. Moreover, the mortality at 200 ppm in data set [1] (setting [7]), in data set [5] (setting [8]) and in data set [6] was at least 80% each time. For the same compound, the mortality at 24 ppm in data set [2] was at least 80%.

In the case of `CCS(=O)(=O)c1cc(N(C)C2CC2)cnc1-c1nnc(-c2cc(C(F)(F)F)ccn2)n1C` [A10, N-cyclopropyl-5-ethylsulfonyl-N-methyl-6-[4-methyl-5-[4-(trifluoromethyl)-2-pyridyl]-1,2,4-triazol-3-yl]pyridin-3-amine], the mortality at 200 ppm in data set [1] (setting [7]) and in data set [5] (setting [8]) was at least 80% throughout.

As for `CCS(=O)(=O)c1ccc(N(C)C2CC2)nc1-c1nnc(-c2cc(C(F)(F)F)ccn2)n1C` [A11, N-cyclopropyl-5-ethylsulfonyl-N-methyl-6-[4-methyl-5-[4-(trifluoromethyl)-2-pyridyl]-1,2,4-triazol-3-yl]pyridin-2-amine], the mortality at 200 ppm in data set [1] (setting [7]) was at least 80%. Further, the mortality at 24 ppm in data set [2] was at least 80%.

Take `CCS(=O)(=O)c1cc(N(C)S(C)(=O)=O)cnc1-c1nnc(-c2cc(C(F)(F)F)ccn2)n1C` [A12, N-[5-ethylsulfonyl-6-[4-methyl-5-[4-(trifluoromethyl)-2-pyridyl]-1,2,4-triazol-3-yl]-3-pyridyl]-N-methyl-methanesulfonamide]: the mortality at 200 ppm in data set [1] (setting [7]) was at least 80%. This compound yielded a mortality at 24 ppm in data set [2] of at least 80%.

`CCS(=O)(=O)c1cc(NS(C)(=O)=O)cnc1-c1nnc(-c2cc(C(F)(F)F)ccn2)n1C` [A14, N-[5-ethylsulfonyl-6-[4-methyl-5-[4-(trifluoromethyl)-2-pyridyl]-1,2,4-triazol-3-yl]-3-pyridyl]methanesulfonamide] returned a melting point of 228 to 230 °C.

With `CCS(=O)(=O)c1cc(C(=O)N(C)C2CC2)cnc1-c1nnc(-c2cc(C(F)(F)F)ccn2)n1C` [A16, N-cyclopropyl-5-ethylsulfonyl-N-methyl-6-[4-methyl-5-[4-(trifluoromethyl)-2-pyridyl]-1,2,4-triazol-3-yl]pyridine-3-carboxamide], the melting point lay within 235 to 237 °C.

Regarding `CCS(=O)(=O)c1ccc(C(=O)NC2CC2)nc1-c1nnc(-c2cc(C(F)(F)F)ccn2)n1C` [A19, N-cyclopropyl-5-ethylsulfonyl-6-[4-methyl-5-[4-(trifluoromethyl)-2-pyridyl]-1,2,4-triazol-3-yl]pyridine-2-carboxamide], the mortality at 200 ppm in data set [1] (setting [7]) and in data set [6] was at least 80% in each case. The mortality at 24 ppm in data set [2] is at least 80%.

In data set [2], `CCS(=O)(=O)c1cc(NC2(C#N)CC2)cnc1-c1nnc(-c2cc(C(F)(F)F)ccn2)n1C` [A22, 1-[[5-ethylsulfonyl-6-[4-methyl-5-[4-(trifluoromethyl)-2-pyridyl]-1,2,4-triazol-3-yl]-3-pyridyl]amino]cyclopropanecarbonitrile] gave a mortality at 24 ppm of at least 80%.

Regarding `CCS(=O)(=O)c1cc(N/C=N/OC)cnc1-c1nnc(-c2cc(C(F)(F)F)ccn2)n1C` [A24, N-[5-ethylsulfonyl-6-[4-methyl-5-[4-(trifluoromethyl)-2-pyridyl]-1,2,4-triazol-3-yl]-3-pyridyl]-N′-methoxy-formamidine], the mortality at 24 ppm in data set [2] was at least 80%.

As for `CCS(=O)(=O)c1cc(N(C)/C=N/OC)cnc1-c1nnc(-c2cc(C(F)(F)F)ccn2)n1C` [A25, N-[5-ethylsulfonyl-6-[4-methyl-5-[4-(trifluoromethyl)-2-pyridyl]-1,2,4-triazol-3-yl]-3-pyridyl]-N′-methoxy-N-methyl-formamidine], the mortality at 200 ppm in data set [1] (setting [7]) is at least 80%. Further, the mortality at 24 ppm in data set [2] is at least 80%.

For the compound `CCS(=O)(=O)c1ccc(N(CC(F)(F)F)C(=O)C2CC2)nc1-c1nnc(-c2cc(C(F)(F)F)ccn2)n1C` [A29, N-[5-ethylsulfonyl-6-[4-methyl-5-[4-(trifluoromethyl)-2-pyridyl]-1,2,4-triazol-3-yl]-2-pyridyl]-N-(2,2,2-trifluoroethyl)cyclopropanecarboxamide], the percent effect (mortality or growth inhibition) at 200 ppm in data set [3] and in data set [4] was at least 80% in each case. Further, the mortality at 200 ppm in data set [1] (setting [7]), in data set [5] (setting [8]) and in data set [6] was at least 80% each time.

In the case of `CCS(=O)(=O)c1cc(N(C)N(C)C(=O)C2CC2)cnc1-c1nnc(-c2cc(C(F)(F)F)ccn2)n1C` [A31, N′-[5-ethylsulfonyl-6-[4-methyl-5-[4-(trifluoromethyl)-2-pyridyl]-1,2,4-triazol-3-yl]-3-pyridyl]-N,N′-dimethyl-cyclopropanecarbohydrazide], the mortality at 200 ppm in data set [1] (setting [7]) was at least 80%. Besides, the mortality at 24 ppm in data set [2] is at least 80%.

As to `CCS(=O)(=O)c1cc(N)cnc1-c1nnc(-c2cc(C(F)(F)F)ccn2)n1C` [A35, 5-ethylsulfonyl-6-[4-methyl-5-[4-(trifluoromethyl)-2-pyridyl]-1,2,4-triazol-3-yl]pyridin-3-amine], the mortality at 200 ppm in data set [1] (setting [7]) was at least 80%.

For the compound `CCS(=O)(=O)c1ccc(N(C)C(=O)OC(C)(C)C)nc1-c1nnc(-c2cc(C(F)(F)F)ccn2)n1C` [A38, Tert-Butyl N-[5-ethylsulfonyl-6-[4-methyl-5-[4-(trifluoromethyl)-2-pyridyl]-1,2,4-triazol-3-yl]-2-pyridyl]-N-methyl-carbamate], the percent control (mortality or growth inhibition) at 200 ppm in data set [3] and in data set [4] was at least 80% in each case. The mortality at 200 ppm in data set [1] and in data set [5] was at least 80% in each case.

For `CCS(=O)(=O)c1cc(N(C)C(=O)OC(C)(C)C)cnc1-c1nnc(-c2cc(C(F)(F)F)ccn2)n1C` [A39, Tert-Butyl N-[5-ethylsulfonyl-6-[4-methyl-5-[4-(trifluoromethyl)-2-pyridyl]-1,2,4-triazol-3-yl]-3-pyridyl]-N-methyl-carbamate], the percent control (mortality or growth inhibition) at 200 ppm in data set [3] and in data set [4] was at least 80% each time. In data set [5], the mortality at 200 ppm was at least 80%.

For the compound `CCS(=O)(=O)c1ccc(NC)nc1-c1nnc(-c2cc(C(F)(F)F)ccn2)n1C` [A41, 5-ethylsulfonyl-N-methyl-6-[4-methyl-5-[4-(trifluoromethyl)-2-pyridyl]-1,2,4-triazol-3-yl]pyridin-2-amine], the mortality at 200 ppm in data set [1] (setting [7]) was at least 80%. This compound also returned a mortality at 24 ppm in data set [2] of at least 80%.

By mortality is commonly meant the percentage killed. What is called melting point is the temperature of the solid-liquid transition.

For the origin of these results see patent publication US10556884B2, “Pesticidally active heterocyclic derivatives with sulphur containing substituents” (SYNGENTA PARTICIPATIONS AG, priority 2015, dated 2020).
